Measurements from EP4623702A1, “ORAL PRODUCT” (Nicoventures Trading Limited, priority 2024, dated 2025).
Like-named read-outs stand apart in the source and are kept apart here.

Tests used:
[1] = target: P-gp (MDR1, ABCB1), human (Homo sapiens, UniProt P08183); assay: in vitro; conditions: dog, MDCK-MDR1, pH 7.4
[2] = target: T1, MDCK-MDR1 cell line heterologously expressing the human P-gp transporter (MDR1) (Homo sapiens, UniProt P08183); conditions: for effect of quercetin on BBB permeability of the compound: MDCK-MDR1
T1 sequence (P08183 whole entry): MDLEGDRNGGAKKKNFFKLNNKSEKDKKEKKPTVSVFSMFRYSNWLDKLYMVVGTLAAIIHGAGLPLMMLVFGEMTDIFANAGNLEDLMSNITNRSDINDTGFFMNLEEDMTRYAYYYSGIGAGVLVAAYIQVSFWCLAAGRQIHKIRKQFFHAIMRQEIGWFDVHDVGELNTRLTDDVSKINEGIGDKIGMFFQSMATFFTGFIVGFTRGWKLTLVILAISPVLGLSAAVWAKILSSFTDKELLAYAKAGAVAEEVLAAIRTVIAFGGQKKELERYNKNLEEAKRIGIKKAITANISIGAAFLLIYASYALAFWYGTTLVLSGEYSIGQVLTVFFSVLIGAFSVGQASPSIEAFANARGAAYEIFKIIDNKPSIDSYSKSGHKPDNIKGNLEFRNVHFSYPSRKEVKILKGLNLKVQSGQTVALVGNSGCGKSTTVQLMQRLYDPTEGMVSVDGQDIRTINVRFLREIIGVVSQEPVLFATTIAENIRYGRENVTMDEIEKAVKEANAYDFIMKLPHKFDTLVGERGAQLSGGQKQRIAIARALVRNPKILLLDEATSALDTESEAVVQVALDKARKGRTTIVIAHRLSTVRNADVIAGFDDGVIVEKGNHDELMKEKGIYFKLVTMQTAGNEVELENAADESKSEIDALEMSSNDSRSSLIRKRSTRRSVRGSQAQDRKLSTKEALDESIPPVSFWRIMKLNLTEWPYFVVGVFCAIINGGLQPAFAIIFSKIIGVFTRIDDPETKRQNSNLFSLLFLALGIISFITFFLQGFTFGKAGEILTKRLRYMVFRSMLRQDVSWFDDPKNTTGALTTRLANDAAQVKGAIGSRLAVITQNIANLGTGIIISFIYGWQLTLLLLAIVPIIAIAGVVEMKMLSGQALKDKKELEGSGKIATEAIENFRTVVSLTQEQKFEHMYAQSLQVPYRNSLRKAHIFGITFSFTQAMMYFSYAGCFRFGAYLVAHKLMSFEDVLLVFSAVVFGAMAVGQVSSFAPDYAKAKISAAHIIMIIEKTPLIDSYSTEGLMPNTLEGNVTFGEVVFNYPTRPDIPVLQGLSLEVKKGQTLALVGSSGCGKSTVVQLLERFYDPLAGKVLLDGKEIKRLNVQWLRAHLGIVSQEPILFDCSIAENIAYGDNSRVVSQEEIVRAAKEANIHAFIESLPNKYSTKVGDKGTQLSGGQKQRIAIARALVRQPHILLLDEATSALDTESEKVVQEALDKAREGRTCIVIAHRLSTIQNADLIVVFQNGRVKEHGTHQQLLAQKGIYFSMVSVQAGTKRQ

[3] = target: T1, MDCK-MDR1 cell line heterologously expressing the human P-gp transporter (MDR1); assay: in vitro; conditions: dog, MDCK-MDR1, pH 7.4
[4] = target: T1, MDCK-MDR1 cell line heterologously expressing the human P-gp transporter (MDR1); assay: MDCK-MDR1 permeability assay (in vitro model for BBB permeation, P-gp substrate identification, with/without inhibitors); conditions: Compound Alone; apical to basolateral; 1 or 10 µM, 60 minutes, pH 7.4 (Table 2)
p-glycoprotein = p-glycoprotein (Homo sapiens, UniProt P08183); conditions: value stated as basis for the 30 µM inhibitor concentration; no source given; cited from earlier work
p-glycoprotein, sequence (P08183 whole entry): as above

P-gp (MDR1, ABCB1), human, sequence (P08183 whole entry): as above

Structure (SMILES) | Papp A→B at 60 min [1] [×10⁻⁶ cm/s] | Papp B→A at 60 min [1] [×10⁻⁶ cm/s] | Papp at 60 min [1] [×10⁻⁶ cm/s] | A2B Apparent permeability (Papp) ([2]; dog, MDCK-MDR1, 60 min, pH 7.4) [×10⁻⁶ cm/s] | Papp A→B at 1 h [3] [×10⁻⁶ cm/s] | Papp B→A at 1 h [3] [×10⁻⁶ cm/s] | A2B Apparent permeability (Papp) ([2]; MDCK-MDR1, pH 7.4) [×10⁻⁶ cm/s] | B2A Apparent permeability (Papp) ([2]; MDCK-MDR1, pH 7.4) [×10⁻⁶ cm/s] | also measured
O=c1cc(-c2ccc(O)cc2)oc2cc(O)cc(O)c12 [Apigenin] | 9.71 | 19.1 | 1 to 10 | 9.71 |  |  |  |  | 
CC(/C=C/C=C(\C)C(=O)O)=C\C=C\C=C(C)\C=C\C=C(/C)C(=O)O [Crocetin] | 1.67 | 5.84 | 1 to 10 | 1.67 |  |  |  |  | 
CC(/C=C/C=C(\C)C(=O)O[C@@H]1O[C@H](CO[C@@H]2O[C@H](CO)[C@@H](O)[C@H](O)[C@H]2O)[C@@H](O)[C@H](O)[C@H]1O)=C\C=C\C=C(C)\C=C\C=C(/C)C(=O)O[C@@H]1O[C@H](CO[C@@H]2O[C@H](CO)[C@@H](O)[C@H](O)[C@H]2O)[C@@H](O)[C@H](O)[C@H]1O [Crocin] | 0.22 | 3.12 | < 1 | 0.22 |  |  |  |  | 
O=C(O)[C@H]1O[C@@H](Oc2cc(O)c3c(=O)cc(-c4ccc(O)c(O)c4)oc3c2)[C@H](O)[C@@H](O)[C@@H]1O [Luteolin-7-glucoronide, Luteolin 7-glucuronide] |  |  |  |  | 0.205 | 0.076 | 0.175 | 0.134 | 
CC1(C)CC[C@]2(C(=O)O)CC[C@]3(C)C(=CC[C@@H]4[C@@]5(C)CC[C@H](O)C(C)(C)[C@@H]5CC[C@]43C)[C@@H]2C1 [Oleanoic acid, Oleanolic acid] | 0.174 | 0.35 | < 1 |  |  |  |  |  | A2B Apparent permeability (Papp) [4]: 0.174 ×10⁻⁶ cm/s
O=C(/C=C/C=C/c1ccc2c(c1)OCO2)N1CCCCC1 [Piperine, (2E,4E)-5-(2H-1,3-benzodioxol-5-yl)-1-(piperidin-1-yl)-penta-2,4-dien-1-one] |  |  |  |  |  |  |  |  | EC50 (p-glycoprotein): 30 µM
CC1=C(C=O)C(C)(C)CC=C1 [Safranal] |  |  |  |  | 90 | 43.3 |  |  | 
CC1=C(C)C(=O)O[C@@H]([C@](C)(O)[C@H]2CC[C@H]3[C@@H]4[C@@H]5O[C@@H]5[C@@]5(O)CC=CC(=O)[C@]5(C)[C@H]4CC[C@]23C)C1 [Withanolide A] |  |  |  |  | 3.65 | 22.2 | 17.3 | 20 | effect of quercetin on BBB permeability of the compound [2]: did not, for instance, significantly enhance
CC1=C(C)C(=O)O[C@@H]([C@@H](C)[C@H]2CC[C@H]3[C@@H]4[C@@H]5O[C@@H]5[C@@]5(O)CC=CC(=O)[C@]5(C)[C@H]4CC[C@]23C)C1 [Withanolide B] |  |  |  |  | 12 | 13.3 | 13.5 | 11.6 | 
CC1=C(C)C(=O)O[C@@H]([C@@H](C)[C@@]2(O)CC[C@H]3[C@@H]4[C@@H]5O[C@@H]5[C@@]5(O)CC=CC(=O)[C@]5(C)[C@H]4CC[C@@]32C)C1 [Withanone] |  |  |  |  |  |  |  |  | Papp A→B [1]: 1.23 ×10⁻⁶ cm/s; Papp B→A [1]: 31.6 ×10⁻⁶ cm/s; effect of quercetin on BBB permeability of the compound [2]: did not, for instance, significantly enhance; B2A Apparent permeability (Papp) ([2]; dog, MDCK-MDR1, pH 7.4): 19.7 ×10⁻⁶ cm/s
